Tests used:
mouse TREX1 = target: T1, mouse TREX1 (Mus musculus, UniProt Q91XB0); test: mTREX1 Biochemical Assay (fluorescence, dsDNA substrate degradation); conditions: full length mouse TREX1, 4 h pre-incubation, 18 h reaction at 25° C.
T1 construct: N-terminally His-Tev tagged full length mouse TREX1; made in house; host or cells: E. coli
T1 sequence (Q91XB0 1-314): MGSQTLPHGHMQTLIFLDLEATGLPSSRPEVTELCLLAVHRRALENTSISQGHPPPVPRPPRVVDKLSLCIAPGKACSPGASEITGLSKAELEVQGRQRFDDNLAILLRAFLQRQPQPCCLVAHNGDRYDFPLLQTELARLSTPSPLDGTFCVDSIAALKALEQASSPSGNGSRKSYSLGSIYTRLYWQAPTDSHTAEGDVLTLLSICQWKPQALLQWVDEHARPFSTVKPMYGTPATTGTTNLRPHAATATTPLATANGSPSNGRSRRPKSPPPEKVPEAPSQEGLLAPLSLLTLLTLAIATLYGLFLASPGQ
Summary of the method: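 Full-length His-Tev mouse TREX1 (E. coli) was preincubated with compound 4 h at 25 °C, then run 18 h at 25 °C. Finals were 6 pM enzyme, 60 nM TEX615/quencher dsDNA, 1% DMSO, pH 7.4 Tris with 5 mM MgCl2. After EDTA quench, fluorescence was read at 615 nm; IC50 by four-parameter fit against EDTA and no-inhibitor controls.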

human TREX2 = target: T2, human TREX2 (Homo sapiens, UniProt Q9BQ50); test: hTREX2 Biochemical Assay (selectivity hTREX1 vs hTREX2); conditions: biochemical selectivity for hTREX1 vs hTREX2
T2 construct: human TREX2 (residues M44-A279, expressed in E. coli); made in house; host or cells: E. coli
T2 sequence (Q9BQ50 44-279 isoform Q9BQ50-1): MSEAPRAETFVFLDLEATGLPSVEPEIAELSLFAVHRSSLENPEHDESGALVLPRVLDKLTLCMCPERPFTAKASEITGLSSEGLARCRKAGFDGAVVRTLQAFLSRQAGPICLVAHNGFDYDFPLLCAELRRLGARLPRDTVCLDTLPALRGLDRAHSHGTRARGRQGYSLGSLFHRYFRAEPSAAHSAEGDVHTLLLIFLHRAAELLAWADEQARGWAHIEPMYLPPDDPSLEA
Summary of the method: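 His-Tev-tagged human TREX2 (M44-A279, E. coli-expressed) preincubated with compound (10-point dose-response) for 4 h at 25 °C in Tris pH 7.4 buffer with 5 mM MgCl2. Reaction then run with 60 nM TEX615/quencher dsDNA and 50 pM enzyme (1% DMSO) for 18 h at 25 °C and EDTA-quenched. Fluorescence read at 615 nm (ex 570 nm); IC50 by four-parameter fit against pre-quenched and no-inhibitor controls.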

Compound | IC50 (mouse TREX1) | hTREX1 vs hTREX2 selectivity (human TREX2)
CC(c1nc(C(=O)Nc2cnoc2)c(O)c(=O)n1C)C(c1ccccc1)c1ccccc1 (single isomer, unassigned) [Example 1 Isomer 1, 2-(1,1-diphenylpropan-2-yl)-5-hydroxy-N-(isoxazol-4-yl)-1-methyl-6-oxo-1,6-dihydro pyrimidine-4-carboxamide] | > 10 nM | A (A = <25 fold selective for hTREX1)
CC(c1nc(C(=O)Nc2cnoc2)c(O)c(=O)n1C)C(c1ccccc1)c1ccccc1 (single isomer, unassigned) [Example 1 Isomer 2, 2-(1,1-diphenylpropan-2-yl)-5-hydroxy-N-(isoxazol-4-yl)-1-methyl-6-oxo-1,6-dihydro pyrimidine-4-carboxamide] | > 10 nM | A (A = <25 fold selective for hTREX1)
C[C@H](c1nc(C(=O)Nc2cnoc2)c(O)c(=O)n1C)[C@H](c1ccccc1)c1ccccc1Cl (single isomer, unassigned) [Example 2 Isomer 3, 2-(1-(2-chlorophenyl)-1-phenylpropan-2-yl)-5-hydroxy-N-(isoxazol-4-yl)-1-methyl-6-oxo-1,6-dihydropyrimidine-4-carboxamide] | 1 to 10 nM | B (B = 25 to 50 fold selective for hTREX1)
CC(c1nc(C(=O)Nc2cnoc2)c(O)c(=O)n1C)C(c1ccccc1)c1ccccc1C#N (single isomer, unassigned) [Example 3 Isomer 4] | 1 to 10 nM | B (B = 25 to 50 fold selective for hTREX1)
CC(c1nc(C(=O)Nc2cnoc2)c(O)c(=O)n1C)C(c1ccccc1C#N)c1ccccc1C#N (single isomer, unassigned) [Example 4 Isomer 2] | < 1 nM | C (C = >50 fold selective for hTREX1)
CC(c1nc(C(=O)Nc2cnoc2)c(O)c(=O)n1C)C(c1ccccc1)c1cc(F)ccc1C#N (single isomer, unassigned) [Example 6 Isomer 4] | 1 to 10 nM | B (B = 25 to 50 fold selective for hTREX1)
CC(c1nc(C(=O)Nc2cnoc2)c(O)c(=O)n1C)C(c1ccccc1)c1cc(Cl)ccc1C#N (single isomer, unassigned) [Example 8 Isomer 2] | 1 to 10 nM | C (C = >50 fold selective for hTREX1)
CC(c1nc(C(=O)Nc2cnoc2)c(O)c(=O)n1C)C(c1ccccc1)c1ccc(Cl)cc1C#N (single isomer, unassigned) [Example 9 Isomer 4] | < 1 nM | B (B = 25 to 50 fold selective for hTREX1)
CC(c1nc(C(=O)Nc2cnoc2)c(O)c(=O)n1C)C(c1ccccc1Cl)c1ccccc1C#N (single isomer, unassigned) [Example 10 Isomer 1] | < 1 nM | C (C = >50 fold selective for hTREX1)
CC(c1nc(C(=O)Nc2cnoc2)c(O)c(=O)n1C)C(c1cc(F)cc(F)c1)c1ccccc1C#N (single isomer, unassigned) [Example 11 Isomer 3] | < 1 nM | B (B = 25 to 50 fold selective for hTREX1)
C[C@H](c1nc(C(=O)Nc2cnoc2)c(O)c(=O)n1C)[C@H](c1ccccc1)c1ccccc1C(F)(F)F (single isomer, unassigned) [Example 14 Isomer 2, 5-Hydroxy-N-(isoxazol-4-yl)-1-methyl-6-oxo-2-(1-phenyl-1-(2-(trifluoromethyl)phenyl)propan-2-yl)-1,6-dihydropyrimidine-4-carboxamide] | > 10 nM | C (C = >50 fold selective for hTREX1)
C[C@H](c1nc(C(=O)Nc2cnoc2)c(O)c(=O)n1C)C(c1ccccc1Cl)c1ccccc1Cl (single isomer, unassigned) [Example 15 Isomer 1, 2-(1,1-bis(2-chlorophenyl)propan-2-yl)-5-hydroxy-N-(isooxazol-4-yl)-1-methyl-6-oxo-1,6-dihydropyrimidine-4-carboxamide] | < 1 nM | C (C = >50 fold selective for hTREX1)
CC(c1nc(C(=O)Nc2cnoc2)c(O)c(=O)n1C)C(c1ccccc1)c1cc(C(=O)N(C)C)ccc1C#N (single isomer, unassigned) [Example 17 Isomer 3] | 1 to 10 nM | B (B = 25 to 50 fold selective for hTREX1)
Cn1c([C@H](C(c2ccccc2)c2ccccc2)C(F)(F)F)nc(C(=O)Nc2cnoc2)c(O)c1=O (single isomer, unassigned) [Example 20 Isomer 1, 5-Hydroxy-N-(isoxazol-4-yl)-1-methyl-6-oxo-2-(1,1,1-trifluoro-3,3-diphenylpropan-2-yl)-1,6-dihydropyrimidine-4-carboxamide] | > 10 nM | A (A = <25 fold selective for hTREX1)
Cn1c([C@@H](C(c2ccccc2C#N)c2ccccc2C#N)C(F)(F)F)nc(C(=O)Nc2cnoc2)c(O)c1=O (single isomer, unassigned) [Example 21 Isomer 1, 2-(3,3-bis(2-cyanophenyl)-1,1,1-trifluoropropan-2-yl)-5-hydroxy-N-(isoxazol-4-yl)-1-methyl-6-oxo-1,6-dihydropyrimidine-4-carboxamide] | 1 to 10 nM | C (C = >50 fold selective for hTREX1)

Reference: US20240262814A1, “MODULATORS OF TREX1” (Constellation Pharmaceuticals, Inc., priority 2021, published 2024)
